# Data published in the supplement of paper PMC3974653.
# Structures can show the parent of a compound that is named as a salt.
# System: MTT (mouse pheochromocytoma)
# Assay: IC50 of cell viability (ATP content)
# Conditions: (24 or 48 h)
# Outline: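 After overnight culture at 37°C, 5% CO2 in white 1536-well plates, MTT mouse pheochromocytoma cells were given 23 nl of library compound in DMSO by pintool across 8 concentrations, spanning final 0.5 nM to 46 µM. Following 24 or 48 hrs, CellTiter-Glo luminescence was read after 15 minutes and normalised against positive-control (100%) and DMSO (0%) wells. A four-parameter logistic model provided the IC50.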
row,IC50 of cell viability [µM],Compound
1,> 46,Nc1ccn([C@@H]2CS[C@H](CO)O2)c(=O)n1 [Lamivudine]
2,> 46,Cc1c(C)c2c(c(C)c1OC(=O)CCC(=O)OCCO)CC[C@](C)(CCC[C@H](C)CCC[C@H](C)CCCC(C)C)O2 [Tocofersolan]
3,> 46,COC1/C=C/O[C@@]2(C)Oc3c(C)c(O)c4c(O)c(c(C=NN5CCN(C)CC5)c(O)c4c3C2=O)NC(=O)C(C)=C/C=C/C(C)C(O)[C@@H](C)C(O)C(C)[C@H](OC(C)=O)C1C (stereo partly specified) [RIFAMPIN]
4,> 46,CCCCC(C)(O)C/C=C/[C@H]1[C@H](O)CC(=O)[C@@H]1CCCCCCC(=O)OC (stereo partly specified) [Misoprostol]
5,> 46,CO[C@H]1C[C@@H]2CC[C@@H](C)[C@@](O)(O2)C(=O)C(=O)N2CCCC[C@H]2C(=O)O[C@H]([C@H](C)C[C@@H]2CC[C@@H](OC(=O)C(C)(CO)CO)[C@H](OC)C2)CC(=O)[C@H](C)C=C(C)[C@@H](O)[C@@H](OC)C(=O)[C@H](C)C[C@H](C)/C=C/C=C/C=C1C [TEMSIROLIMUS]
6,> 46,O=C(O)[C@@H]1CCCN1 (racemic) [DL-Proline]
7,> 46,C[S+](=O)([O-])OCCCCO[S+](C)(=O)[O-] [Busulfan]
8,> 46,Nc1ccc([S+](=O)([O-])Nc2ncccn2)cc1 [Sulfadiazine]
9,> 46,C[C@H]1O[C@H]([C@H](O)[C@@H]1O)N2\C=C(F)/C(=O)NC2=O [Doxifluridine]
10,> 46,C=CCOc1cc(Cl)ccc1C(=O)NCCN(CC)CC [ALLOCLAMIDE HYDROCHLORIDE]
11,> 46,O=C(O)CC(O)C(=O)O.[NaH] (stereo unspecified) [MALIC ACID]
12,> 46,CC(=O)OCC(CCn1cnc2cnc(N)nc21)COC(C)=O [FAMCICLOVIR]
13,> 46,CC(=O)SC[C@@H](C)C(=O)N1CCC[C@H]1C(=O)N[C@@H](Cc1ccccc1)C(=O)O [ALACEPRIL]
14,> 46,Cc1cn([C@H]2C[C@H](O)[C@@H](CO)O2)c(=O)[nH]c1=O [TELBIVUDINUM]
15,> 46,CC(C(=O)O)c1ccc(/C=C2\CCCCC2=O)cc1 (stereo unspecified) [PELUBIPROFEN]
16,> 46,CC(C)(O)c1ccccc1CC[C@H](SCC1(CC(=O)[O-])CC1)c1cccc(/C=C/c2ccc3ccc(Cl)cc3n2)c1 [MONTELUKAST SODIUM]
17,> 46,COC(=O)CCc1ccc(OCC(O)CNC(C)C)cc1 (stereo unspecified) [Esmolol hydrochloride]
18,> 46,CC(C)C[C@H](NC(=O)[C@@H](Cc1c[nH]c2ccccc12)NC(=O)[C@@H](Cc1ccc(O)cc1)NC(=O)[C@@H](CO)NC(=O)[C@@H](Cc1c[nH]c2ccccc12)NC(=O)C(Cc1c[nH]cn1)NC(=O)C1CCC(=O)N1)C(=O)N[C@@H](CCCNC(=N)N)C(=O)N1CCC[C@@H]1C(=O)NCC(N)=O (stereo partly specified) [TRIPTORELIN PAMOATE]
19,> 46,O=C(O)/C=C\c1ccc(Cn2ccnc2)cc1 [Ozagrel hydrochloride]
20,> 46,S=C1SCN(Cc2ccccc2)CN1Cc1ccccc1 [Sulbentina]
21,> 46,C[C@H](CCCC(C)(C)O)[C@H]1CC[C@H]2[C@@H]3CC=C4C[C@@H](O)CC[C@]4(C)[C@H]3CC[C@]12C [25-Hydroxycholesterol]
22,> 46,Nc1nc(O)c2c(CCc3ccc(C(=O)N[C@H](CCC(=O)[O-])C(=O)[O-])cc3)c[nH]c2n1 [PEMETREXED]
23,> 46,CC(=O)O[C@@]1(CC[C@@H]2[C@@H]3\C=C(C)/C4=C/C(=O)CC[C@@]4(C)[C@H]3CC[C@@]12C)C(C)=O [Megestrol acetate]
24,> 46,CC(=O)N[C@@H](CC(=O)O)C(=O)N[C@@H](CCC(=O)O)C(=O)O [SPAGLUMIC ACID]
25,> 46,NC[C@@H]1O[C@@H](O[C@H]2[C@@H](O)[C@H](O[C@@H]3O[C@@H](CO)[C@H](O)[C@H](N)[C@@H]3O)[C@@H](N)C[C@H]2N)[C@H](N)C[C@@H]1O [Tobramycin]
26,> 46,NCCCCC(N)C(=O)O (stereo unspecified) [Lysine]
27,> 46,[Na+].CO[C@H]1[C@@H](OC(N)=O)[C@@H](O)[C@H](OC2=C(C)C3=C(C=C2)\C(=C(\NC(=O)C4=CC(=C([O-])C=C4)CC=C(C)C)C(=O)O3)O)OC1(C)C [Novobiocin sodium salt]
28,> 46,CN(CCOc1ccc(NS(C)(=O)=O)cc1)CCc1ccc(NS(C)(=O)=O)cc1 [Dofetilide]

row,IC50 of cell viability [µM],Compound
1,> 46,CC1Cc2ccccc2N1NC(=O)c1ccc(Cl)c([S+](N)(=O)[O-])c1 (stereo unspecified) [INDAPAMIDE]
2,> 46,NC/C=C/C(=O)O [(E)-4-amino-2-butenoic acid]
3,> 46,Nc1ccc([S+](=O)([O-])Nc2ccccn2)cc1 [Sulfapyridine]
4,> 46,CC(Cc1ccccc1)(NC(=O)CN)c1ccccc1 (stereo unspecified) [Remacemide hydrochloride]
5,> 46,CC(=O)O[C@@H]1C(=O)O[C@H]2[C@@H]1OC(=O)[C@@H]2OC(C)=O [ACEGLATONE]
6,> 46,Cn1nnc2c(C(N)=O)ncn2c1=O [TEMOZOLOMIDE]
7,> 46,CCC1OC(=O)C[C@H](O)C(C)[C@@H](O[C@@H]2OC(C)C(O)[C@H](N(C)C)C2O)C(CCN2CC(C)CC(C)C2)CC(C)C(=O)/C=C/C(C)=C\[C@@H]1COC1OC(C)C(O)C(OC)C1OC (stereo partly specified) [TILMICOSIN]
8,> 46,C=C1CC[C@H](O)C/C1=C/C=C1\CCC[C@]2(C)[C@@H]([C@H](C)CC[C@@H](O)C(C)(C)O)CC[C@@H]12 [SECALCIFEROL]
9,> 46,COC(C)=O [Methyl acetate]
10,> 46,C[C@](N)(Cc1ccc(O)c(O)c1)C(=O)O [Methyldopa sesquihydrate]
11,> 46,[NH2][Pt]1([NH2])[O]CC(=O)[O]1 [NEDAPLATIN]
12,> 46,C[N+]1(C)CCC(=C(c2ccccc2)c2ccccc2)CC1 [Diphemanil methylsulfate]
13,> 46,CC(C)N1CCN(c2ccc(OC[C@@H]3CO[C@@](Cn4cncn4)(c4ccc(Cl)cc4Cl)O3)cc2)CC1 [Terconazole]
14,> 46,CC[C@H](C)[C@H](N)\C1=N\[C@@H](CS1)C(=O)N[C@@H](CC(C)C)C(=O)N[C@@H](CCC(O)=O)C(=O)N[C@H]([C@@H](C)CC)C(=O)N[C@@H]2CCCCNC(=O)[C@@H](CC(N)=O)NC(=O)[C@@H](CC(O)=O)NC(=O)[C@@H](CC3=CN=C[NH]3)NC(=O)[C@@H](CC4=CC=CC=C4)NC(=O)[C@H](NC(=O)[C@@H](CCCN)NC2=O)[C@@H](C)CC [Bacitracin]
15,> 46,CCCCC(CC)COS(=O)(=O)[O-] (stereo unspecified) [NATRII ETASULFAS]
16,> 46,Oc1cccc(-c2c3nc(c(-c4cccc(O)c4)c4ccc([nH]4)c(-c4cccc(O)c4)c4nc(c(-c5cccc(O)c5)c5ccc2[nH]5)CC4)C=C3)c1 [Temoporfin]
17,> 46,C[N+](C)(C)CC(=O)O [Betaine hydrochloride]
18,> 46,C[C@]12CCC3C(CCC/4=C/C(=O)CCC34)C1CC[C@@]2(O)C#C (stereo partly specified) [NORETHINDRONE]
19,> 46,COc1ccc(CCNC[C@H](O)COc2cccc(C)c2)cc1OC [Bevantolol]
20,> 46,"O.O=S(=O)([O-])CC(S)CS.[Na+] (stereo unspecified) [2,3-DIMERCAPTOPROPANE-1-SULFONATE SODIUM]"
21,> 46,CC(N)C12CC3CC(CC(C3)C1)C2 (stereo unspecified) [Rimantadine hydrochloride]
22,> 46,COC(=O)CCC[N+](C)(C)C [CARPRONIUM CHLORIDE]
23,> 46,CCCCC1(COC(=O)CCC(=O)O)C(=O)N(c2ccccc2)N(c2ccccc2)C1=O [Suxibuzone]
24,> 46,CCN(CC)[S+](=O)([O-])c1ccc(C(=O)O)cc1 [Etebenecid]
25,> 46,CCC(C(=O)OCCOCCN(CC)CC)c1ccccc1 (stereo unspecified) [Butamirate citrate]
26,> 46,CCN(CC)CCN1C(=O)\C(=N/C2=CC=CC=C12)CC3=CC=C(OC)C=C3 [Caroverine hydrochloride]
27,> 46,CC[C@H](C)C(=O)O[C@H]1C[C@@H](C)\C=C2\C=C/[C@H](C)[C@H](CC[C@@H]3C[C@@H](O)CC(=O)O3)[C@@H]12 [Lovastatin]

row,Compound,IC50 of cell viability [µM]
1,CC(=O)Nc1cc([As](=O)(O)O)ccc1O [ACETARSOL],> 46
2,CNC(=O)OCC[N+](C)(C)C.[Cl-] [Methylcarbamylcholine chloride],> 46
3,"Clc1ccccc1Cl [1,2-Dichlorobenzene]",> 46
4,CC12CCC(=O)CC1CCC1C2CCC2(C)C1CCC2(C)O (stereo unspecified) [Mestanolone],> 46
5,ClC(Cl)(Cl)Cl [Carbon tetrachloride],> 46
6,COc1cc2c(cc1OC)C1CC(=O)C(CC(C)C)CN1CC2 (stereo unspecified) [Tetrabenazine],> 46
7,CN(C)CCc1c[nH]c2cccc(O)c12 [Psilocin],> 46
8,Cc1cccc(C(C)c2cnc[nH]2)c1C (stereo unspecified) [Medetomidine hydrochloride],> 46
9,"COc1ccc2c3c1O[C@H]1[C@@H](O)C=C[C@H]4C(C2)NCCC341 (single isomer, unassigned; (-)) [(-)-NORCODEINE]",> 46
10,CCN(Cc1ccc(Cl)nc1)/C(=C/[N+](=O)[O-])NC [NITENPYRAM],> 46
11,COc1ccc(C(=O)c2c(C)n(CCN3CCOCC3)c3ccccc23)cc1 [Pravadoline maleate],> 46
